Measurements reported in PubChem BioAssay (NCI).
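Where inhibition never reached the appropriate level, the endpoint shown equals the highest concentration tested. Otherwise, values were interpolated linearly from a five-concentration, 48-hour dose response in 96-well plates. Definition used: TGI = concentration required for complete inhibition of growth.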

What was measured:
Experiment in all cases: growth of human tumour cells (NCI), 48 h
HOP-62 NSCLC = test system: HOP-62 NSCLC
UACC-257 melanoma = test system: UACC-257 melanoma
SF-268 CNS = test system: SF-268 CNS
MOLT-4 leukemia = test system: MOLT-4 leukemia
DMS 273 small cell lung = test system: DMS 273 small cell lung
NCI-H23 lung = test system: NCI-H23 lung
HCC-2998 colon = test system: HCC-2998 colon
IGROV1 ovarian = test system: IGROV1 ovarian
NCI-H226 lung = test system: NCI-H226 lung
COLO 205 colon = test system: COLO 205 colon
HT29 colon = test system: HT29 colon
M14 melanoma = test system: M14 melanoma
A549 NSCLC = test system: A549 NSCLC
HOP-92 NSCLC = test system: HOP-92 NSCLC
LXFL 529 NSCLC = test system: LXFL 529 NSCLC
RPMI-8226 leukemia = test system: RPMI-8226 leukemia
XF 498 CNS = test system: XF 498 CNS
SNB-19 CNS = test system: SNB-19 CNS
SF-539 CNS = test system: SF-539 CNS
SK-MEL-28 melanoma = test system: SK-MEL-28 melanoma
LOX IMVI melanoma = test system: LOX IMVI melanoma
A498 renal = test system: A498 renal
SW-620 colon = test system: SW-620 colon
OVCAR-5 ovarian = test system: OVCAR-5 ovarian
U251 CNS = test system: U251 CNS
EKVX NSCLC = test system: EKVX NSCLC
SK-MEL-5 melanoma = test system: SK-MEL-5 melanoma
OVCAR-4 ovarian = test system: OVCAR-4 ovarian
CAKI-1 renal = test system: CAKI-1 renal
OVCAR-3 ovarian = test system: OVCAR-3 ovarian
786-0 renal = test system: 786-0 renal
KM12 colon = test system: KM12 colon
SK-OV-3 ovarian = test system: SK-OV-3 ovarian
DLD-1 colon = test system: DLD-1 colon
RXF 393 renal = test system: RXF 393 renal
KM20L2 colon = test system: KM20L2 colon
SF-295 CNS = test system: SF-295 CNS
M19-MEL melanoma = test system: M19-MEL melanoma
OVCAR-8 ovarian = test system: OVCAR-8 ovarian
UO-31 renal = test system: UO-31 renal
SN12C renal = test system: SN12C renal
UACC-62 melanoma = test system: UACC-62 melanoma
TK-10 renal = test system: TK-10 renal
HCT-116 colon = test system: HCT-116 colon
CCRF-CEM leukemia = test system: CCRF-CEM leukemia
K-562 leukemia = test system: K-562 leukemia
DMS 114 small cell lung = test system: DMS 114 small cell lung
SR leukemia = test system: SR leukemia
ACHN renal = test system: ACHN renal
MALME-3M melanoma = test system: MALME-3M melanoma
SNB-75 CNS = test system: SNB-75 CNS
HOP-18 NSCLC = test system: HOP-18 NSCLC

Measured: TGI

COC(=O)C1C(=O)O[C@@H](c2ccc(OC)cc2)C1C(=O)OC (some centres not stated)
> 100 µM: HOP-62 NSCLC | UACC-257 melanoma | SF-268 CNS | MOLT-4 leukemia | DMS 273 small cell lung | NCI-H23 lung | HCC-2998 colon | IGROV1 ovarian | NCI-H226 lung | COLO 205 colon | HT29 colon | M14 melanoma | A549 NSCLC | HOP-92 NSCLC | LXFL 529 NSCLC | RPMI-8226 leukemia | XF 498 CNS | SNB-19 CNS | SF-539 CNS | SK-MEL-28 melanoma | LOX IMVI melanoma | A498 renal | SW-620 colon | OVCAR-5 ovarian | U251 CNS | EKVX NSCLC | SK-MEL-5 melanoma | OVCAR-4 ovarian | CAKI-1 renal | OVCAR-3 ovarian | 786-0 renal | KM12 colon | SK-OV-3 ovarian | DLD-1 colon | RXF 393 renal | KM20L2 colon | SF-295 CNS | M19-MEL melanoma | OVCAR-8 ovarian | UO-31 renal | SN12C renal | UACC-62 melanoma | TK-10 renal | HCT-116 colon | CCRF-CEM leukemia | K-562 leukemia | DMS 114 small cell lung | SR leukemia | ACHN renal | MALME-3M melanoma | SNB-75 CNS | HOP-18 NSCLC
